According to publication PMC11061149, “Protein mimetic 2D FAST rescues alpha synuclein aggregation mediated early and post disease Parkinson’s phenotypes” (Nature Communications, 2024):
Where “and” joins values, the source holds several entries; their conditions need not be identical. Equal values may be shown once.

Assays:
[1] = molecular target: T1, αS aggregation (Homo sapiens, UniProt P37840); experiment: SDS-PAGE gel shift assay of soluble and insoluble αS fractions; format: biochemical; conditions: for Total (αS, SDS-PAGE gel shift), Average: average of 3 trials
T1 construct: made in house; host or cells: E. coli BL21(DE3)
Excerpt: The inhibition of αS aggregation by NS41 was also confirmed by TEM images, which show an abundance (Supplementary Fig. 3a) and low amount (Supplementary Fig. 3b) of αS fibers in the absence and presence of NS41, respectively. We used SDS-PAGE (Sodium dodecyl sulfate polyacrylamide gel electrophoresis) as a complementary assay to validate ThT results and to further characterize the antagonist activity of the monopyridyls against αS aggregation. We used a total of four monopyridyls with varying antagonist activity against αS aggregation for the SDS-PAGE assay. The solutions of αS (±monopyridyls) were centrifuged and the soluble and insoluble fractions were subjected to SDS-PAGE analysis as reported earlier (Fig. 2d, Supplementary Fig. 4a, see details in methods section). The band intensities of the gels in SDS-PAGE assay were quantified using ImageJ software. In the absence of ligands, ~12% of αS was found in the soluble fraction and the rest was found in the insoluble fraction (Fig. 2d, Supplementary Fig. 4a, b). In the presence of NS41 at molar ratios of 1:1 and 2:1 (NS41:αS), 48% and 73% of αS protein were found in the soluble fraction, respectively, and the rest of αS protein was found in the insoluble fraction (Fig. 2d, Supplementary Fig. 4a, b). […] The antagonist activity of the monopyridyls corroborated well from both ThT and the SDS-PAGE assays (Fig. 2a–d, Supplementary Fig. 4a, b). The higher the antagonist activity of monopyridyls against αS aggregation, the lower the ThT intensity and the higher the amount of αS remained in the soluble fraction (Fig. 2a–d, Supplementary Fig. 4a, b). […] It is important to note that NS41 contains a carboxyl (COOH) functional group side chain. […] We have also shown in that work that the foldamer binds to the N-terminus of αS because of its negatively charged COOH functional group interaction with the positively charged lysine residues of αS[24]. […] Additionally, we have also shown that the OPs with the COOH functional group are very effective inhibitors of aggregation of other amyloid proteins that contain lysine amino acid via the formation of salt bridges[30]–[34].
An αS solution (100 µM) was prepared in PBS with or without ligands and shaken ([…], 37 °C) until the fluorescence plateaued, as observed using the ThT aggregation assay, indicative of the aggregation of αS as a control (four days for most experiments unless otherwise mentioned). The solutions were separated into soluble and insoluble fractions by centrifugation at 22,000 × g for 20 min. The fractions were diluted in 2×Laemmli protein sample loading buffer (Containing 2.1% SDS, Bio-rad, Hercules, CA), boiled at 95 °C for 5 min, and ran on a 12% Mini-PROTEAN precast protein gel (Bio-rad, Hercules, CA). The gel was visualized using ChemiDoc MP Imaging System (Bio-rad, Hercules, CA) and band intensity was quantified using Image Lab image acquisition and analysis software (Bio-rad, Hercules, CA). Densitometry values were averaged from three technical replicates and reported with the error bars representing their standard deviations.

[2] = Parallel artificial membrane permeability assay (PAMPA); format: in vitro ADME
Method: The permeability of various ligands was assessed with a PAMPA kit (BioAssay Systems, Hayward, CA) according to a previously described protocol. Briefly, 4% lecithin solution (LS) was prepared in dodecane and 5 µL was applied to the donor plate membrane. Then, 300 μL PBS was added to the acceptor plate. Subsequently, 200 µL of ligand solutions (500 μM) and various permeability standards (high, medium, and low, 500 μM) were added to the donor plate membrane. The donor plate was placed in the acceptor plate and incubated at r.t. for 18 h. The solutions were then moved from the acceptor plate into a clear-bottom 96-well plate (Corning Inc., Corning, NY) and absorbance was recorded at 360 nm for various ligands and 275 nm for permeability standards. The permeability was calculated using Eq. (1) below, where the permeability rate, C, equals 7.72 × 10^–6, ODA is the absorbance of the acceptor solution, and ODE is the absorbance of the equilibrium standard.1 Pe=C×−ln1−ODA/ODEcm/s

[3] = test system: UA196 worms; experiment: Confocal counting of healthy DA neurons, post-disease onset PD model of UA196 worms (treatment on day five); format: in vivo, C. elegans
Method: The UA196 worms were bleached, and the eggs were incubated on PLATE 1. On day two, the UA196 worms were transferred (using M9 buffer) on PLATE 2 (without ligand). On day five, 10 UA196 worms were used to determine the number of healthy DA worms using confocal imaging (as described earlier) prior to the treatment with ligands on day five. In tandem, ~50 worms were transferred to PLATE 3 (with ligand) using M9 buffer (10-20 µL) and the plate was incubated at 20 °C in the incubator. On days 10 and 15, 10 UA196 worms from PLATE 2 (without ligand) and PLATE 3 (with ligand) were used to determine the number of healthy DA worms using confocal imaging (as described earlier). For each condition, six biological replicates were performed and at least 10 technical replicates were used for each biological replicate. […] (n = 6 independent experiments and each n consisted of a minimum of ten technical replicates).

[4] = UA196 worms+NS132, Day 10, per trial (10 worms)
[5] = UA196 worms+NS132, Day 15, per trial (10 worms)

amount of αS in the insoluble fraction ([1]; 100 µM αS, four days, equimolar): 14% and 11%
Total (αS, SDS-PAGE gel shift), Average ([1]; NS132 0.2 eq.): 1.493
Total (αS, SDS-PAGE gel shift), Trial 1-3 ([1]; NS132 0.2 eq., individual trials, Synuclein alone total ~1): 1.48 and 1.6 and 1.4
Total (αS, SDS-PAGE gel shift), Average ([1]; NS132 1.0 eq.): 1.161
Total (αS, SDS-PAGE gel shift), Trial 1-3 ([1]; NS132 1.0 eq., individual trials): 1.099 and 1.145 and 1.24
αS band intensity, Total, Average ([1]; sheet S7B): 99.9667
αS band intensity, Total ([1]; sheet S7B, individual trials): 92.4 and 101.3 and 106.2
Papp at 18 h, 500 μM ([2]; PAMPA, 500 μM in donor, 18 h, r.t., unit from Eq. 1, read-out: PAMPA permeability (Pe), individual trials): 2.92 ×10⁻⁶ cm/s
Compound: Cc1ccc(NC(=O)c2ccc(NC(=O)c3ccc([N+](=O)[O-])c(NCCc4c[nH]c5ccccc45)n3)c(NCC3CCCCC3)n2)c(OCC(=O)O)n1 [NS132]
distribution of αS between soluble and insoluble fraction, in words ([1]; substoichiometric ratio αS:ligand 1:0.5): predominantly detected in the soluble fraction
cell permeability (PAMPA), comparison in words [2]: lower in comparison to the PAMPA medium standard
PAMPA permeability (Pe), individual trials ([2]; 500 μM in donor, 18 h, r.t., unit from Eq. 1): 2.69 ×10⁻⁶ cm/s and 2.41 ×10⁻⁶ cm/s and 2.71 ×10⁻⁶ cm/s and 2.89 ×10⁻⁶ cm/s
number of intact healthy DA neurons (max. 60) ([3]; 50 μM ligand on day five, day 15 (untreated 13.8 / 12.8)): 32
healthy DA neurons, Average ([3]; UA196+ 50 uM NS132, day 5 (same value as UA196 control)): 44.8333
healthy DA neurons, Average ([3]; UA196+ 50 uM NS132, day 10): 34.8333
healthy DA neurons, Average ([3]; UA196+ 50 uM NS132, day 15): 32
healthy DA neurons per trial ([3]; UA196 worms+Ligands, single trials 1-6, day not given): 31 and 33
Number of worms with 5 neurons [3, 4]: 1 and 2
Number of worms with 6 neurons [3, 4]: 0
number of worms with 3 neurons [3, 4]: 4 and 3
number of worms with 4 neurons [3, 4]: 3 and 4
Number of worms with 2 neurons [3, 5]: 1 and 2
Number of worms with 5 neurons [3, 5]: 0
Number of worms with 6 neurons [3, 5]: 0
number of worms with 3 neurons [3, 5]: 4 and 3 and 2
number of worms with 4 neurons [3, 5]: 4 and 5 and 6
